# Measurements taken from patent US12258299B2, “Permanent eco-fertilizer against fruit physiological disorders and pests” (S.A. Reverté Productos Minerales, priority 2019, dated 2025).
# What was measured:
# Golden apple pulp = test: Foliar fertilization of the pulp of Golden apples; type: in vivo; settings: 30 kg/Ha, treatment last week of April
# Protocol: A first experiment was carried out to measure the foliar fertilization of Golden apples. The treatment was carried out the last week of April using a 3% weight suspension of the fertilizer as claimed in water (30 kg/1000 l water/Ha).
# [1] = Salt index of the fertilizer; type: physicochemical
compound,measurement,setting,value
"[Ca+2].[Cl-].[Cl-] [CaCl2, calcium chloride]",Calcium,Golden apple pulp,24 ppm
same,salt index,[1],87
